Source: patent publication US7390873B2, “Antimicrobial cationic peptides” (University of British Columbia, priority 1995, dated 2008)
Where no end group is shown, it is not given here.

Assays:
[1] = test system: E. coli UB1005; format: cell-based; settings: UB1005, 24 h
Procedure: (§1) Any of the art-known methods for measuring antimicrobial activity of peptides can be used in characterizing the peptides of the invention. In these examples, conventional methods were used to determine the minimal inhibitory concentration (MIC) of a peptide in a liquid medium (Amsterdam. Antibiotics in Laboratory Medicine, Williams and Wilkins, Baltimore (1991) 72-78). Briefly, overnight cultures of the test organisms (described below) were diluted to produce an inoculum containing approximately 10^4 to 10^5 organisms. The inoculum size was confirmed by counting the number of organisms on plates that were inoculated at the same time as the liquid cultures.
(§2) The concentration of peptide was measured by assaying for free amino groups using a dinitrophenylation assay, with polymyxin B serving as a standard. Doubling dilutions of peptide were performed (32 μg/ml-0.25 μg/ml) in 100 μl volumes in a 96-well mictrotiter plate, and all wells were subsequently inoculated with the diluted culture of the test organism. After 24 hours of incubation at 37° C., the assay was read. The MIC value is the concentration of peptide at which the growth of the test organism was reduced by 50%. The number of cells in the culture inoculum was calculated from the plate count after incubating the plate for 24 hours at 37° C. The medium used for cell culture and dilution in this assay was Luria broth (LB). Each peptide was tested three times against each organism, and the MIC values presented below are the mean values of the three experiments.

[2] = test system: Pseudomonas aeruginosa K799; format: cell-based; settings: K799, 24 h
Procedure: as §1, §2

[3] = test system: Staphylococcus aureus RN4220; format: cell-based; settings: RN4220, 24 h
Procedure: as §1, §2

[4] = test system: Staphylococcus epidermidis C621; format: cell-based; settings: C621, 24 h
Procedure: as §1, §2

[5] = test system: Candida albicans C627; format: cell-based; settings: C627, 24 h
[6] = test system: human red blood cells; test: Lysis of red blood cells; format: cell-based
Procedure: Freshly collected human blood was mixed with heparin and centrifuged to remove the buffy coat. The resulting erythrocytes were washed three times in 0.85% saline and stored at 4° C. Serial dilutions of the peptides in saline were prepared in round bottomed microtitre plates using 100 μl volumes. Red blood cells were diluted with saline to 1/25 of the packed volume of cells and 50 μl of red blood cells were added to each well. Plates were incubated while rocking at 37° C., and the concentration of peptide required for red blood cell lysis of more than 80% of cells (i.e., visible lysis) was determined at 4 and 24 hours (Table 7).

[7] = Mortality after injection of peptide in mice; format: in vivo; settings: 200 μg peptide IP
Procedure: The ability of indolicidin and variants to protect against LPS-induced endotoxemia was assessed in vivo. Mice (8-10 weeks old) were injected intraperitoneally (IP) with 20 mg D-galactosamine (Dgal) to sensitive them to LPS according to the model of Galanos (Galanos, C., M. A., Freudenberg and W. Reutter, 1979, Galactosamine sensitization to the lethal effects of endotoxin. Proc. Natl. Acad. Sci. USA 76:5939), followed by 200 μg peptide in 100 μl. Immediately afterwards LPS (10 μg) in 100 μl was injected. The mice were observed 24 hours after injections and survivors noted. […] When Dgal and LPS were also injected, that 200 μg of indolicidin reduced mortality reduced at 24 hours from 100% in controls to 60%.

[8] = test system: T-lymphocytes

## ILKKWPWWPWRRK [CP-11]
[1]
  MIC E. coli: 4 µg/mL
[2]
  MIC P. aeruginosa: 16 µg/mL
[3]
  MIC S. aureus: 16 µg/mL
[4]
  MIC S. epidermidis: 2 µg/mL
[5]
  MIC C. albicans: 8 µg/mL
[6]
  Lowest concentration causing lysis, 4 hours: >128 µg/mL
  Lowest concentration causing lysis, 24 hours: >128 µg/mL
[7]
  Mortality after injection of peptide: did not cause mortality
[8]
  Toxicity to T-lymphocytes compared with indolicidin: less toxic than indolicidin
